{"source": "patent US6610860B2", "about": "“C7 ester substituted taxanes” (FSU Research Foundation, Inc., priority 2000, dated 2003)", "test_system": "HCT116 cells", "test": "In vitro cytotoxicity measured by the cell colony formation assay", "format": "cell-based", "details": "72 h drug incubation, colonies counted after 7 days, ID50 = drug concentration producing 50% inhibition of colony formation, read-out: IN VITRO ID 50 (nm) HCT116", "procedure": "In Vitro Cytotoxicity Measured by the Cell Colony Formation Assay\nFour hundred cells (HCT116) were plated in 60 mm Petri dishes containing 2.7 mL of medium (modified McCoy's 5a medium containing 10% fetal bovine serum and 100 units/mL penicillin and 100 µg/mL streptomycin). The cells were incubated in a CO2 incubator at 37° C. for 5 h for attachment to the bottom of Petri dishes. The compounds identified in Example 2 were made up fresh in medium at ten times the final concentration, and then 0.3 mL of this stock solution was added to the 2.7 mL of medium in the dish. The cells were then incubated with drugs for 72 h at 37° C. At the end of incubation the drug-containing media were decanted, the dishes were rinsed with 4 mL of Hank's Balance Salt Solution (HBSS), 5 mL of fresh medium was added, and the dishes were returned to the incubator for colony formation. The cell colonies were counted using a colony counter after incubation for 7 days."}
{"smiles": "CC(=O)O[C@H]1C(=O)[C@@]2(C)[C@H]([C@H](OC(=O)c3ccccc3)[C@]3(O)C[C@H](OC(=O)[C@H](O)[C@@H](NC(=O)c4ccccc4)c4ccccc4)C(C)=C1C3(C)C)[C@]1(OC(C)=O)CO[C@@H]1C[C@@H]2O", "note": "[taxol]", "values": [{"measurement": "IC50", "result": 2.1, "unit": "nM"}]}
